Assay results reported in US20090324718A1, “IMATINIB COMPOSITIONS” (priority 2006, published 2009).
Where a name gives a salt, the structure may show the parent alone.

Key:
Type in all cases: physicochemical
[1] = Chemical stability on storage: HPLC Assay and Impurities and Degradation Determination (IDD); details: for Chemical: Assay: HPLC; for Chemical: main deg: HPLC IDD
Method: The term “chemical stability” as used herein relates to the presence or absence of degradation products of the active pharmaceutical ingredient (API) as measure over time. Chemical stability is measured as the Assay of the material and/or the level of degradants. Stability is defined as having an Assay of at least about 90%, as determined by an HPLC assay method and/or having a minimum level of degradants, as determined by an HPLC Impurities and Degradation Determination (IDD) method over time. Preferably, a chemically stable composition as in the present inventor has an assay of at least 95%, more preferably at least 98%, as determined by an HPLC assay over time (storage time).
The stability of the examples described herein were tested using various analytical methods. One analytic method used is a determination using HPLC. The following HPLC method was used for the examples described below where HPLC was used as an analytic method.
(§1) The table below summarizes all test results (Assay, IDD, weight gain, and appearance). The appearance data is scored from 1 to 5 (1=very good (no change in color and texture of the sample), see an example of “Score=1” in Table 2, example 10, Day 0, 5=not good (changed both in color (became yellow) and in texture (absorbed water and reduced shine of sample)), see an example of “Score=4-5” in Table 2, example 9, time Day 5), and is supported by pictures presented in Table 2.

[2] = Physical stability on storage: appearance score (color and texture); set-up: key to Appearance, scale: 1 = good 5 = bad / Appearance / Appearance t = 7 days / Appearance t = 14 days: 1=very good (no change in color and texture of the sample); 5=not good (changed both in color (became yellow) and in texture (absorbed water and reduced shine of sample)); details: for Appearance, scale: 1 = good 5 = bad: 55° C./75% RH Day 0; for Appearance: 55° C./75% RH Day 5; for Appearance t = 7 days / Appearance t = 14 days / Appearance t = 28 days: 40° C./75% RH
Excerpt: As used herein the term “physical stability” of a composition means the appearance of the composition is substantially unchanged and/or the hygroscopicity is low.
The term “appearance” as used herein describes the color and texture of a composition. The color of a composition according to a scored scale, as assessed by one of ordinary skill in the art in view of the following guidelines. A discoloration score of 1 indicates material without discoloration, whereas a discoloration score of 5 indicates severe discoloration (almost complete discoloration) relative to the color of the material as obtained after preparation and prior to storage. In the present invention the composition preferably has a white color immediately after processing and generally remains white if stable. Discoloration to a yellow color is typical when the composition is unstable. Similarly, a texture score of 1 indicates material having an uniform and smooth texture, whereas a texture score of 5 indicates a nonuniform and rough texture. The texture may be determined by visual inspection by one of ordinary skill in the art. For both discoloration and texture, scores 2 to 4 represent 5 “some or slight (change)” for a score of 2, “medium (change)” for a score of 3, and “substantial (change)” for a score of 4.
as §1

[3] = Physical form of the active drug in the sample; details: 55° C./75% RH Day 0
[4] = Hygroscopicity of imatinib depending on the physical structure of the active drug
[5] = Gain of weight (moisture uptake) on storage at 40° C./75% RH
Excerpt: Texture is often highly correlated with hygroscopicity. Water/moisture absorption tends to reduce shine, for example. Water hygroscopicity can be determined by weight gain analyses.
Embodiments of the invention are preferably packaged with a desiccant, such as silica. The container preferably has a high moisture barrier, examples of which are known in the art. In a preferred packaged pharmaceutical composition of the present invention an amount of desiccant which will assure a weight gain due to moisture of not more than (NMT) 5%, preferably 0.5%, more preferably 0.05%, is preferred in order to maintain a good appearance and low water absorption for a maximum period of time. For example, the weight gain of the packaged material of the present invention after storage (i) at a temperature of about 55° C. and about 75% relative humidity for 5 days, and/or (ii) at a temperature of about 40° C. and about 75% relative humidity for 30 days, is less than about 15%, preferably less than about 10%, more preferably less than about 5% by weight.

Chemical: Assay ([1]; 55° C./75% RH Day 0)	Chemical: main deg ([1]; 55° C./75% RH Day 0)	Chemical: Assay ([1]; 55° C./75% RH Day 5)	Chemical: main deg ([1]; 55° C./75% RH Day 5)	Appearance, scale: 1 = good 5 = bad [2]	Appearance [2]	Physical [3]	hygroscopicity compared to crystalline material [4]	Appearance t = 7 days [2]	Appearance t = 14 days [2]	Appearance t = 28 days [2]	Wt gain T = 7 days [5]	Wt gain T = 14 days [5]	Wt gain T = 28 days [5]	SMILES
88.6	0.46	97.8	0.44	1	5	amrph	much more hygroscopic							Cc1ccc(NC(=O)c2ccc(CN3CCN(C)CC3)cc2)cc1Nc1nccc(-c2cccnc2)n1 [Active drug (Amorphous), imatinib mesylate]
97.5	0.12	98.8	0.12	1	1	Alpha								Cc1ccc(NC(=O)c2ccc(CN3CCN(C)CC3)cc2)cc1Nc1nccc(-c2cccnc2)n1 [Active drug (Crystalline 1), imatinib mesylate]
94.5	0.11	98.8	0.13	1	4			1	1-2	3	21.49%	17.75%	18.3%	Cc1ccc(NC(=O)c2ccc(CN3CCN(C)CC3)cc2)cc1Nc1nccc(-c2cccnc2)n1 [Active drug (Crystalline 2), imatinib mesylate]
								1	1	2	12.42%	7.79%	8.86%	Cc1ccc(NC(=O)c2ccc(CN3CCN(C)CC3)cc2)cc1Nc1nccc(-c2cccnc2)n1 [Active drug (Crystalline 2) Packed with silica] [imatinib mesylate]
